{"source": "patent US9637519B2", "about": "“Peptide for inducing mast cell-specific apoptosis and use thereof” (CAREGEN CO., LTD., priority 2013, dated 2017)", "key": {"[1]": {"system": "RBL-2H3 cells", "assay": "Histamine secretion from IgE/HSA-stimulated mast cells (histamine ELISA)", "type": "cell-based, rat", "settings": "IgE 1 μg/ml sensitized, HSA 1 μg/ml stimulated", "method": "In the culture of RBL-2H3 cells sensitized by IgE treatment (1 μg/ml) for 16 h, the existing culture medium was removed and exchanged with a tyrode buffer. […] In addition, in order to measure the activity of beta-hexosaminidase, the degree of color development after a reaction with a substrate, p-N-acetyl-glucosamine (NAG; SIGMA, USA) was determined by measuring the absorbance at 405 nm using a spectrophotometer (see FIG. 3b)."}, "[2]": {"system": "RBL-2H3 rat mast cell lines", "settings": "10 μg/ml treatment group, 27 h", "method": "First, RBL-2H3 rat mast cell lines (Korean Cell Line Bank, Korea) were cultured in Dulbecco's modified Eagle's medium (DMEM, Gibco, U.S.A.) supplemented with 10% fetal bovine serum (FBS, Sigma) using a flask for tissue culture (SPL, Korea). The cultured cell lines were detached from the bottom of the culture container using a 1% trypsin solution, and then only cell deposits were collected by centrifugation. The cell deposits were again suspended in DMEM culture liquid, placed in each well of a 6-well plate for tissue culture (SPL, Korea) at 1×10^5 cells per well, and then cultured for 24 h under conditions of 37° C. and 5% CO2. After 24 h, the medium was exchanged with the same culture liquid. […] After the completion of the culture, the culture supernatant fluid was removed, the cultured cell lines were detached from the bottom of the culture container using a 1% trypsin solution, and then only cell precipitates were collected by centrifugation. The cells were stained using an Annexin V-PI staining kit (BD pharmigen), and then FL1 and FL2 intensities were measured using flow cytometry, FACS. Annexin V-positive apoptotic cells were counted (see FIG. 2a)."}, "[3]": {"system": "HaCaT cells", "settings": "HaCaT human keratinocytes; 1 and 10 μg/ml; 27 h; MTT", "method": "(§1) Meanwhile, in order to investigate whether or not the apoptosis effect is a mast cell-specific reaction, the cytotoxicity test was conducted using HaCaT cells as keratinocytes and NIH3T3 cells as fibroblasts. The cells were placed in a 96-well plate for tissue culture at 5×10^3 cells per well, and then cultured for 24 h under conditions of 37° C. and 5% CO2. After 24 h, the medium was exchanged with the same culture liquid. A blank sample for determining a reference and the synthetic peptide were dissolved in 10% distilled water in a sterile state, followed by culturing at concentrations of 1 μg/ml and 10 μg/ml for 27 h under the same conditions as above. After the completion of the culture, the culture liquid was treated with MTT reagent (5 mg/ml; SIGMA, USA) with 1/10 volume and further cultured for 4 h, and the generated formazan was dissolved in DMSO and the absorbance was measured at 540 nm using a spectrophotometer (Molecular devices, USA) (see FIG. 2c)."}, "[4]": {"system": "NIH3T3 cells", "settings": "NIH3T3 fibroblasts; 1 and 10 μg/ml; 27 h; MTT", "method": "as §1"}, "[5]": {"system": "ERK1/2", "settings": "IgE-sensitized cells; peptide 10 μg/ml 20 min; HSA 1 μg/ml 5 or 30 min", "method": "(§2) The cells were placed in a 60 mm-sized plate for culture (SPL, Korea) at 1.5×10^6 cells per well, and then cultured for 24 h under conditions of 37° C. and 5% CO2. After that, the cells were treated with IgE (1 μg/ml) for 24 h for cell sensitization, and then a blank sample for determining a reference and the synthetic peptide were dissolved in 10% distilled water in a sterile state, followed by treatment with a concentration of 10 μg/ml for 20 min, and then the cells were stimulated by treatment with 1 μg/ml allergen HSA for 5 min or 30 min."}, "[6]": {"system": "p38", "settings": "IgE-sensitized cells; peptide 10 μg/ml 20 min; HSA 1 μg/ml 5 or 30 min", "method": "as §2"}, "[7]": {"target": "T1, FcεRI receptor (Rattus norvegicus, UniProt P12371+P13386+P20411)", "T1 construct": "FcεRI receptor, which is present on surfaces of mast cells; endogenous in cells; host or cells: RBL-2H3 rat mast cell line", "T1 sequence (P12371 24-245)": "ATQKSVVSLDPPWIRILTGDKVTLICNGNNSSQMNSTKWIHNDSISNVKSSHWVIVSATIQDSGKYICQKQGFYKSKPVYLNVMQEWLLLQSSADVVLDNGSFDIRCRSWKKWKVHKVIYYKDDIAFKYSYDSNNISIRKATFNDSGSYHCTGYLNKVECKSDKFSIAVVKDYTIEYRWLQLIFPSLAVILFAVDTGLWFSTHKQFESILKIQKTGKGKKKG", "T1 sequence (P13386 1-243)": "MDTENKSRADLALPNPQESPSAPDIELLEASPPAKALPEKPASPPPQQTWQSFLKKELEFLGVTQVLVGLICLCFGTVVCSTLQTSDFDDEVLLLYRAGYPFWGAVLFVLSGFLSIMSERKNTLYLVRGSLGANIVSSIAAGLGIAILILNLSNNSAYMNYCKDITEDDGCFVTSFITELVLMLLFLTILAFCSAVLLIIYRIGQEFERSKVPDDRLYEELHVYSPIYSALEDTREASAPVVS", "T1 sequence (P20411 19-86)": "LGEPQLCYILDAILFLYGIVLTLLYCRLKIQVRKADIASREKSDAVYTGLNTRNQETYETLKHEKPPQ", "assay": "Immunoprecipitation with IgE antibody and western blotting of FcεRI gamma sub-chain (receptor complex formation)", "type": "cell-based", "settings": "IgE-sensitized cells; peptide 10 μg/ml; HSA stimulation 10 min", "method": "After the first separation using immunoprecipitation, western blotting was conducted using FcεRI gamma sub-chain antibody to confirm the protein amount of the gamma sub-chains binding to IgE (see FIG. 4c)."}, "[8]": {"assay": "Thermal stability at 37° C. in phosphate buffered saline, HPLC quantification", "type": "physicochemical", "settings": "0.1 mg/ml in PBS, days 0-70 (FIG. 5)", "method": "1 ml of the prepared solution was placed in each glass vial, and allowed to stand at 37° C. The solution standing at 37° C. was sampled on days 0, 5, 10, 20, 30, 50, and 70. Centrifugation for each day was conducted to remove modified peptides or proteins, and the supernatant was taken. HPLC was used for quantification (see FIG. 5)."}, "[9]": {"system": "Bcl2", "settings": "1 and 10 μg/ml, 27 h"}, "[10]": {"system": "Lyn", "settings": "IgE-sensitized cells; peptide treatment 20 min; HSA 1 μg/ml"}, "[11]": {"settings": "activated mast cells (IgE and HSA treatment)"}}, "note": "Like-named read-outs stand apart in the source and are kept apart here. Ends that are not written are not given here."}
{"molecule": "O=c1c(O)c(-c2ccc(O)c(O)c2)oc2cc(O)cc(O)c12", "note": "[quercetin, reference compound]", "values": [{"measurement": "secretion amount of histamine", "setting": "[1]; positive control 40 μM", "result": "reduces the secretion amount of histamine"}]}
{"molecule": "WVPYQARVPYPR [peptide of the present invention]", "values": [{"measurement": "Annexin V-positive cell count (apoptosis)", "setting": "[2]; [11]", "result": "increased the Annexin V-positive cell count"}, {"measurement": "Annexin V-positive cell count (apoptosis)", "setting": "[2]; inactivated mast cells", "result": "increased the Annexin V-positive cell count"}, {"measurement": "cytotoxicity", "setting": "[3]", "result": "did not exhibit cytotoxicity"}, {"measurement": "cytotoxicity", "setting": "[4]", "result": "did not exhibit cytotoxicity"}, {"measurement": "secretion amount of histamine", "setting": "[1]; peptide 1 and 10 μg/ml", "result": "activity to reduce the secretion amount of histamine in a concentration-dependent manner"}, {"measurement": "phosphorylation of ERK1/2", "setting": "[5]", "result": "efficacy of inhibiting the phosphorylation"}, {"measurement": "phosphorylation of p38", "setting": "[6]", "result": "efficacy of inhibiting the phosphorylation"}, {"measurement": "complex formation of FcεRI receptor (gamma sub-chains binding to IgE)", "setting": "[7]", "result": "significantly inhibit the complex formation"}, {"measurement": "thermal stability", "setting": "[8]", "result": "very excellent thermal stability"}, {"measurement": "expression level of Bcl2", "setting": "[9]; [11]", "result": "reduce the expression level of Bcl2"}, {"measurement": "expression level of Bcl2", "setting": "[9]; inactivated mast cells", "result": "reduce the expression level of Bcl2"}, {"measurement": "phosphorylation of Lyn", "setting": "[10]", "result": "significantly inhibited in a concentration-dependent manner"}]}
{"molecule": "natural semaphorin 3A protein: standard form growth factor (Semaphorin 3A) purchased from NIBSC (UK); human semaphorin 3A, SEQ ID NO: 2 (protein, listed as Homo sapiens) MGWLTRIVCLFWGVLLTARANYQNGKNNVPRLKLSYKEMLESNNVITFNGLANSSSYHTFLLDEERSRLYVGAKDHIFSFDLVNIKDFQKIVWPVSYTRRDECKWAGKDILKECANFIKVLKAYNQTHLYACGTGAFHPICTYIEIGHHPEDNIFKLENSHFENGRGKSPYDPKLLTASLLIDGELYSGTAADFMGRDFAIFRTLGHHHPIRTEQHDSRWLNDPKFISAHLISESDNPEDDKVYFFFRENAIDGEHSGKATHARIGQICKNDFGGHRSLVNKWTTFLKARLICSVPGPNGIDTHFDELQDVFLMNFKDPKNPVVYGVFTTSSNIFKGSAVCMYSMSDVRRVFLGPYAHRDGPNYQWVPYQGRVPYPRPGTCPSKTFGGFDSTKDLPDDVITFARSHPAMYNPVFPMNNRPIVIKTDVNYQFTQIVVDRVDAEDGQYDVMFIGTDVGTVLKVVSIPKETWYDLEEVLLEEMTVFREPTAISAMELSTKQQQLYIGSTAGVAQLPLHRCDIYGKACAECCLARDPYCAWDGSACSRYFPTAKRRTRRQDIRNGDPLTHCSDLHHDNHHGHSPEERIIYGVENSSTFLECSPKSQRALVYWQFQRRNEERKEEIRVDDHIIRTDQGLLLRSLQQKDSGNYLCHAVEHGFIQTLLKVTLEVIDTEHLEELLHKDDDGDGSKTKEMSNSMTPSQKVWYRDFMQLINHPNLNTMDEFCEQVWKRDRKQRRQRPGHTPGNSNKWKHLQENKKGRNRRTHEFERAPRSV", "values": [{"measurement": "thermal stability", "setting": "[8]", "result": "low stability at the time of storage for a long period of time"}]}
